Reference: patent publication US10273453B2, “Method for stem cell differentiation in vivo by delivery of morphogenes with mesoporous silica and corresponding pharmaceutical active ingredients” (Nanologica AB, priority 2010, dated 2019)

System: bNCSCs
Test: in vitro differentiation assay of bNCSCs
Assay type: cell-based, mouse
Details: bNCSC cultures
Procedure: bNCSCs were isolated in a semiclonal fashion from EGFP embryos on embryonic day (E)11, as described previously (Hjerling-Leffler J, Marmigére F, Heglind M, et al. The boundary cap: a source of neural crest stem cells that generate multiple sensory neuron subtypes. Development 2005; 132:2623-32). Briefly, the DRGs along with boundary caps were mechanically separated from the isolated spinal cord and mechano-enzymatically dissociated using Collagenase/Dispase (1 mg/ml) and DNase (0.5 mg/ml) for 30 minutes at room temperature. Cells were plated at 0.5-1×10^5 cells/cm^2 in N2 medium containing B27 (Gibco, Grand Island, N.Y., www.invitrogen.com) as well as EGF and basic fibroblast growth factor (R&D Systems, Minneapolis, www.rndsystems.com; 20 ng/ml, respectively). […]
The AMS were added to the cultures and the time-window for their presence before dissolving in the culture medium was established. We also analyzed their contact with the stem cells. […] After staining 10 photographs were taken from each slide and the ratios of neurons and glial cells were calculated in all types of experiments. We also calculated the neurite length per cell as a measure of the level of neuronal differentiation (Kozlova E N. Differentiation and migration of astrocytes in the spinal cord following dorsal root injury in the adult rat. Eur J Neurosci 2003; 17:782-90).

With `CC1=C(/C=C/C(C)=C/C=C/C(C)=C/C(=O)O)C(C)(C)CCC1` [RA, retinoic acid] as the molecule, how does the “differentiation of neurons based on neurite lengths, increase compared to non-treated neurospheres” value read?
The value was “up to 37%”.

And the “neuron/glia ratio, increase compared to neurospheres-alone” value?
Its value is 3.4 times.
